What all share (format): cell-based
The target of one test is T1, Insulin Receptor (Homo sapiens, UniProt P06213).
T1 construct: expressed in transfected cells; host or cells: H25 cells (NIH3T3, ATCC No. 1658)
The test is described as follows: Insulin receptor phosphorylation assay in H25 cells (ELISA). Conditions: insulin stimulation. The procedure:
The following materials and reagents were used to measure phophotyrosine levels on the insulin receptor (indicating insulin receptor tyrosine kinase activity):
1. The preferred cell line was an NIH3T3 cell line (ATCC No. 1658) which overexpresses Insulin Receptor (H25 cells);
2. Resuspend the cells in fresh DMEM+10% FBS+2mM L-Glutamine, and transfer to 96-well tissue culture plate (Corning, 25806-96) at 20,000 cells/well (100 μL/well). The cells are then incubated for 1 day. Following such incubation, 0.01% serum medium (90/μL) replaces the old media and the cells incubate in 5% CO2 and 37° C. overnight.
1. Coat the ELISA plate (Corning 25805-96) with Anti-IR Antibody at 0.5 μg/well in 100 μL PBS at least 2 hours.
C. Assay Procedures 1. The drugs are tested in serum-free condition. 2. Dilute drug stock (in 100% DMSO) 1:10 with DMEM in 96-well poly-propylene plate, and transfer 10 μL/well of this solution to the cells to achieve final drug dilution 1:100, and final DMSO concentration of 1.0%. Incubate the cells in 5% CO2 at 37° C. for 2 hours.
4. After drug incubation for two hours, transfer 10 μL/well of 1 μM insulin in PBS to the cells (Final concentration=100 nM), and incubate at 5% CO2 at 37° C. for 10 minutes.
5. […]
The IC50 values measured in the insulin receptor phosphorylation assay for the compound of formula VI are depicted in Table 7: […]
(ELISA stands for enzyme-linked immunosorbent assay.)

The target in another test is human FLK-1 (Homo sapiens, UniProt P35968). The test is described as follows: FLK-1 receptor phosphorylation assay in cells (ELISA). The note with it: NIH3T3 C7#3 cells, VEGF stimulation.
In the next test the test system is HUV-EC-C cells. As to the kind of experiment: HUV-EC-C assay (3H-thymidine), aFGF. The note with it: Homo sapiens, 3H-thymidine incorporation, HUVEC. The procedure: The following protocol may also be used to measure a compound's activity against PDGF-R, FGF-R or Flk-1/KDR, all of which are naturally expressed by HUV-EC cells. 1. Wash and trypsinize HUV-EC-C cells (human umbilical vein endothelial cells, (American Type Culture Collection; catalogue no. 1730 CRL). Wash with Dulbecco's phosphate-buffered saline (D-PBS; obtained from Gibco BRL, catalogue no. 14190-029) 2 times at about 1 mL/10 CM^2 of tissue culture flask. Trypsinize with 0.05% trypsin-EDTA in non-enzymatic cell dissociation solution (Sigma Chemical Company; catalogue no. C-1544). The 0.05% trypsin was made by diluting 0.25% trypsin/1 mM EDTA (Gibco; catalogue no. 25200-049) in the cell dissociation solution. Trypsinize with about 1 mL/25-30 cm^2 of tissue culture flask for about 5 minutes at 37° C. After cells have detached from the flask, add an equal volume of assay medium and transfer to a 50 mL sterile centrifuge tube (Fisher Scientific; catalogue no. 05-539-6). 2. Wash the cells with about 35 mL assay medium in the 50 mL sterile centrifuge tube by adding the assay medium, centrifuge for 10 minutes at approximately 200×g aspirate the supernatant and resuspend with 35 mL D-PBS. Repeat the wash two more times with D-PBS, resuspend the cells in about 1 mL assay medium/15 cm^2 of tissue culture flask. […]
(Incorporation of labelled thymidine or its analogues reports DNA synthesis.)

T1 sequence (P06213 28-1382, species assumed): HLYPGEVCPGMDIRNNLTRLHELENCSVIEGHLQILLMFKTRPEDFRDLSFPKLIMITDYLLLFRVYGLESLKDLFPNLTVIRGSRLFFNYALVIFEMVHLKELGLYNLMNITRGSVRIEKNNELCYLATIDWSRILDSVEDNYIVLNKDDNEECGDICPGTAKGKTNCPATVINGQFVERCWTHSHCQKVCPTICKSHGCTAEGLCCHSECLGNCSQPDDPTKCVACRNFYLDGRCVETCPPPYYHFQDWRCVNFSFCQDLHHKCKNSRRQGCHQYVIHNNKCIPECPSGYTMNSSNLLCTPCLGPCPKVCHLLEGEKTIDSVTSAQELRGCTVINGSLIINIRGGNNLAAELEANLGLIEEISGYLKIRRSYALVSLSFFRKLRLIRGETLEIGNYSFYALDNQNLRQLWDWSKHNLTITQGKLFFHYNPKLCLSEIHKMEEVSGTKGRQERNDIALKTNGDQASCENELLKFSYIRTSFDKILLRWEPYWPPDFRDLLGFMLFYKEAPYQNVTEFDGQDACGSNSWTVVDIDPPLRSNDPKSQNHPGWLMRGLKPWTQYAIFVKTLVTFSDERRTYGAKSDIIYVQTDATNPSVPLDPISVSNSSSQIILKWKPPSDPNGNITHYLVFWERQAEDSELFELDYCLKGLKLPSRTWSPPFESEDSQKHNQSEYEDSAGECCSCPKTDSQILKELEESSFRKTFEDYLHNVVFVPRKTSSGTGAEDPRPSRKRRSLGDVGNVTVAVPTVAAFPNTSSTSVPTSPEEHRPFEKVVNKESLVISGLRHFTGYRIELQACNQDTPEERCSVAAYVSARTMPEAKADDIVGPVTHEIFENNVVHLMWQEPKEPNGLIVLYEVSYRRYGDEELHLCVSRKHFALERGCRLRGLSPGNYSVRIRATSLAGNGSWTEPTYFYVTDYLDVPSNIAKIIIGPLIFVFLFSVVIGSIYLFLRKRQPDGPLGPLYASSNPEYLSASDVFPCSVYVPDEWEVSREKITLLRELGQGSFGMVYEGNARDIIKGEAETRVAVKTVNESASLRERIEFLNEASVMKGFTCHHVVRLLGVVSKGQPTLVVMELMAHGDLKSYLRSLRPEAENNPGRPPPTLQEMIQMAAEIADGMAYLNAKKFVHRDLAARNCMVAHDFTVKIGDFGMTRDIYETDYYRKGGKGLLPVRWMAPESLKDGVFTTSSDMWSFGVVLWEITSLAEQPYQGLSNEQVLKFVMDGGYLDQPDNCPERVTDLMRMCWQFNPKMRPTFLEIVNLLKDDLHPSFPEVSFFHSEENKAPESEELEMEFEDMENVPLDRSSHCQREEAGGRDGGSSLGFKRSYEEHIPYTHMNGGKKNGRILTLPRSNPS

Take `Cc1cc(/C=C2/C(=O)Nc3ccccc32)c(C)c2c1[nH]c1ccccc12` [VI]: the values for the IC50 on Insulin Receptor, on human FLK-1 and with HUV-EC-C cells were 21.9 µM, 4.84 µM and 0.63 µM, respectively.

Source of the values: US6514981B1, “Methods of modulating tyrosine protein kinase function with indolinone compounds” (Sugen, Inc., priority 1998, dated 2003).
